Results reported in the supplement of paper PMC5579334.

How the values were obtained:
[1] = tested on: STS26T; assay: relative IC50 (inflection point of fitted dose-response curve, CellTiter-Glo viability, 72 h; top asymptote may be below 50% inhibition); higher = less potent
Outline: (§1)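 For this screen, 384-well plates were preprinted with each compound at five concentrations in 10-fold steps and seeded with MPNST cell lines or primary human Schwann cells at 750–1000 cells per well. Incubation lasted 72 h at 37 °C, 5% CO2, and CellTiter-Glo ATP luminescence, scaled between vehicle and positive-control wells and averaged over duplicates where available, served as viability. Logistic fits with four parameters were applied. Relative IC50 (censored at the top concentration) and drug sensitivity score derive from these fits, and percent inhibition is at the top concentration.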

[2] = tested on: HSC1; assay: as above
Outline: as §1

[3] = tested on: S1507-2; assay: as above
Outline: as §1

[4] = tested on: HSC2; assay: as above
Outline: as §1

[5] = tested on: HS-Sch-2; assay: as above
Outline: as §1

[6] = tested on: S462; assay: as above
Outline: as §1

[7] = tested on: ST8814; assay: as above
Outline: as §1

[8] = tested on: HS-PSS; assay: as above
Outline: as §1

[9] = tested on: YST-1; assay: as above
Outline: as §1

[10] = tested on: STS26T; assay: relative IC50 (inflection point of fitted dose-response curve, CellTox-Green cytotoxicity, 72 h; top asymptote may be below 50%); higher = less potent
Outline: (§2)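 MPNST cell lines and primary human Schwann cells were grown for 72 h at 37 °C in 384-well plates containing five 10-fold compound dilutions. CellTox-Green, added before seeding at a final 1:1000 dilution, gave fluorescence from DNA released by disrupted cells, and signals were scaled to vehicle and positive-control wells. Curves were fitted with a four-parameter logistic model. Drug sensitivity score and relative IC50 come from these fits, with IC50 censored at the top concentration.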

[11] = tested on: HSC1; assay: as above
Outline: as §2

[12] = tested on: S1507-2; assay: as above
Outline: as §2

[13] = tested on: HSC2; assay: as above
Outline: as §2

[14] = tested on: ST8814; assay: as above
Outline: as §2

[15] = tested on: HS-PSS; assay: as above
Outline: as §2

SMILES	relative IC50 [1] [µM]	relative IC50 [2] [µM]	relative IC50 [3] [µM]	relative IC50 [4] [µM]	relative IC50 [5] [µM]	relative IC50 [6] [µM]	relative IC50 [7] [µM]	relative IC50 [8] [µM]	relative IC50 [9] [µM]	relative IC50 [10] [µM]	relative IC50 [11] [µM]	relative IC50 [12] [µM]	relative IC50 [13] [µM]	relative IC50 [14] [µM]	relative IC50 [15] [µM]
O=[N+]([O-])c1ccc2c(c1)S(=O)(=O)C=C2 [Stattic]	2.99	1.88	9.57	3.04	1.42	4.99	2.41	1.39	1.74	2.27	2.45	15.9	7.9	4.72	2.87
O=C(Cc1ccc(-c2ccc(OCCN3CCOCC3)cc2)cn1)NCc1ccccc1 [KX2-391]	0.0294	0.0523	0.0467	0.073	0.0305	0.0343	0.0364	0.163	0.0491	0.0236	0.112	0.0302	0.139	0.0338	> 10
CC1(COc2ccc3c(c2)ncn3-c2ccc3cccc(N4CCC(N)CC4)c3n2)COC1 [Crenolanib]	2.71	2.67	2.28	2.43	1.25	3.27	1.75	3.64	3.31	3.24	2.93	1.95	3.31	1.99	3.15
CC[C@@H]1C(=O)N(C)c2cnc(Nc3ccc(C(=O)N[C@H]4CC[C@H](N5CCN(CC6CC6)CC5)CC4)cc3OC)nc2N1C(C)C [Volasertib]	0.00729	0.0345	0.0161	0.0332	0.0106	0.0154	0.0336	0.0421	0.0177	0.00268	0.0293	0.0127	0.0252	0.0341	> 1
Cc1cc2c(F)c(Oc3ncnn4cc(OC[C@@H](C)O)c(C)c34)ccc2[nH]1 [Brivanib]	> 1	> 1	> 1	> 1	> 1	> 1	> 1	> 1	> 1	> 1	> 1	> 1	> 1	> 1	> 1
C=CC(=O)Nc1cc2c(Nc3ccc(F)c(Cl)c3)ncnc2cc1OCCCN1CCOCC1 [Canertinib]	2.22	1.61	1.56	2.03	2.53	2.78	1.87	2.44	3.18	2.7	2.16	2.41	2	2.97	2.42
CC[C@@]1(O)C(=O)OCc2c1cc1n(c2=O)Cc2cc3c(CN(C)C)c(O)ccc3nc2-1 [Topotecan]	0.202	0.123	0.173	0.0909	0.136	0.0524	0.0425	0.323	0.0441	0.197	0.0508	0.55	0.237	0.0233	0.869
Nc1cc(C(F)(F)F)c(-c2cc(N3CCOCC3)nc(N3CCOCC3)n2)cn1 [Buparlisib]	1.53	1.99	1.37	2.02	1.61	1.79	1.69	1.75	0.844	1.61	2.71	2.96	2.21	2.66	> 10
Oc1ncnc2[nH]ncc12 [Allopurinol]	> 10	> 10	> 10	> 10	> 10	> 10	> 10	> 10	> 10	> 10	> 10	> 10	> 10	> 10	> 10
Nc1nc(NC2CC2)cc(-c2cccc(Cl)c2Cl)n1 [TH588]	3.71	5.43	4.36	4.28	4.16	6.91	3.83	3.82	3.62	3.54	4.52	4.04	3.82	5.56	> 25
Nc1ccn([C@@H]2O[C@H](CO)[C@@H](O)C2(F)F)c(=O)n1 [Gemcitabine]	0.00159	0.0022	0.000876	0.002	0.00209	0.000481	0.00413	0.0199	0.00834	0.00122	0.00857	0.00265	0.00547	0.00386	0.0504
C/C(=C\c1csc(C)n1)[C@@H]1C[C@@H]2O[C@]2(C)CCC[C@H](C)[C@H](O)[C@@H](C)C(=O)C(C)(C)[C@@H](O)CC(=O)N1 [Ixabepilone]	0.35	0.115	0.332	0.248	0.313	0.335	0.363	0.392	0.361	0.316	0.283	0.37	0.354	0.341	> 1
